# According to patent publication US8883841B2, “Oncogenic ras-specific cytotoxic compound and methods of use thereof” (The Board of Regents of the University of Texas System, priority 2005, dated 2014):
# Like-named read-outs stand apart in the source and are kept apart here.
# How the values were obtained:
# H2087 = assay: Cell viability, H2087 lung cancer cells; assay type: cell-based, human
# CT116P53 = assay: Cell viability, CT116P53 colon cancer cells; assay type: cell-based, human
# H226B cells = assay: Cell viability, H226B lung cancer cells; assay type: cell-based, human; details: for IC50: Homo sapiens; for IC50 (−LogM): H226B, Lung
# A549 cells = assay: Cell viability, A549 lung cancer cells; assay type: cell-based, human
# Hct116 = assay: Cell viability, Hct116 colon cancer cells; assay type: cell-based, human
# miapac = assay: Cell viability, miapac pancreatic cancer cells; assay type: cell-based, human
# DLD1 = assay: Cell viability, DLD1 colon cancer cells; assay type: cell-based, human
# H2122 = assay: Cell viability, H2122 lung cancer cells; assay type: cell-based, human
# T29Kt1 cells [1] = assay: cells; details: Homo sapiens, T29Kt1, read-out: IC50 in T29k cells, Table 1
# Heb44 = assay: Cell viability, Heb44 kidney cells; assay type: cell-based
# H2009 = assay: Cell viability, H2009 lung cancer cells; assay type: cell-based, human
# HKE3 = assay: Cell viability, HKE3 colon cancer cells; assay type: cell-based, human; details: for IC50: Homo sapiens; for IC50 (−LogM): HKE3, Colon
# AsPC-1 = assay: Cell viability, AsPC-1 pancreatic cancer cells; assay type: cell-based, human
# Capanc-1 = assay: Cell viability, Capanc-1 pancreatic cancer cells; assay type: cell-based, human
# H1299 cells = assay: Cell viability, H1299 lung cancer cells; assay type: cell-based, human
# T29 cells [2] = assay: cells; details: Homo sapiens, T29, read-out: IC50 in T29 cells
# H460 cells [3] = assay: cells; details: Homo sapiens
# H1933 = assay: Cell viability, H1933 lung cancer cells; assay type: cell-based, human
# H322 cells = assay: Cell viability, H322 lung cancer cells; assay type: cell-based, human
# H23 = assay: Cell viability, H23 lung cancer cells; assay type: cell-based, human
# Hey = assay: Cell viability, Hey ovary cancer cells; assay type: cell-based
# Ovcar3 = assay: Cell viability, Ovcar3 ovary cancer cells; assay type: cell-based
# Ovcar443 = assay: Cell viability, Ovcar443 ovary cancer cells; assay type: cell-based
# Ovca429 = assay: Cell viability, Ovca429 ovary cancer cells; assay type: cell-based
# SKOV3 = assay: Cell viability, SKOV3 ovary cancer cells; assay type: cell-based
# H1395 = assay: Cell viability, H1395 lung cancer cells; assay type: cell-based, human
# Heb46 = assay: Cell viability, Heb46 kidney cells; assay type: cell-based
# A549CK8 = assay: Cell viability, A549CK8 lung cancer cells; assay type: cell-based, human
# T29Kt1 cells [4] = system: T29Kt1 cells
# H460 cells [5] = system: H460 cells
# Sw620 = assay: Cell viability, Sw620 colon cancer cells; assay type: cell-based, human; details: Sw620, Colon
# T29 cells [6] = system: T29 cells
# PKCiota = assay: Immunohistochemical staining, subcellular localization of PKCiota; assay type: cell-based, human; details: 12 h; comparators at doses giving similar cell killing
# Experimental: Effects on subcellular localization of PKCiota. […] To further investigate molecular mechanisms of Oncrasin action the inventors studied the subcellular localization of several molecules involved in Ras-signaling pathway because the functions of Ras and other proteins are directly related to their subcellular localizations. For this purpose, T29Kt1 or H460 cells were seeded on cover glass slides and treated with DMSO or Oncrasin-1 for 12 h. Cells were then fixed with paraformaldehyde, permeabilized with Triton X-100 and stained with various antibodies for immunohistochemical examination. […] Nevertheless, substantial subcellular localization change was detected for PKCiota after Oncrasin-1 treatment (FIG. 6). In both H460 and T29Kt1 cells, both PKCiota and PKCzeta were diffusely distributed in cells with high concentration on cell membrane in nucleus, consisting with previous reports that aPKC contains both nuclear localization signal (NLS) and nuclear export signal (NES), and can shuttle between cytoplasm and nucleus, which was regulated by intramolecular conformational changes, phosphorylation or by treatment with growth factors (Perander et al., 2001; White et al., 2002; Neri et al., 1999). […] Such aggregation of PKCiota was not observed in Oncrasin-resistant T29 and H1299 cells. The inventors then tested whether PKCiota aggregation in the nucleus can be induced by other chemotherapeutic agents such as 5-fluorouracil (5-FU) and paclitaxol.
# [7] = Homo sapiens, read-out: IC50 (−LogM) (converted)
# [8] = at any of the doses tested (dose response)
# [9] = up to 100 μM, the highest concentration tested
compound,measurement,setting,value
"O=Cc1cn(Cc2cccc([N+](=O)[O-])c2)c2ccccc12 [Oncrasin K68, 1-(3-nitrobenzyl)-1H-indole-3-carbaldehyde]",IC50,"H2087; Homo sapiens, NCI-H2087, read-out: IC50 (−LogM) (converted)",31.6 µM
same,IC50,CT116P53; [7],< 31.6 µM
same,IC50,"H226B cells; read-out: IC50 (−LogM), H226B, Lung, first H226B line (converted)",0.00251 µM
same,IC50,"H226B cells; read-out: IC50 (−LogM), H226B, Lung, second H226B line (converted)",0.0631 µM
same,IC50,"A549 cells; Homo sapiens, A549, read-out: IC50 (−LogM), A549, Lung (converted)",5.01 µM
same,IC50,"Hct116; Homo sapiens, HCT-116, read-out: IC50 (−LogM), Hct116, Colon (converted)",0.158 µM
same,IC50,"miapac; Homo sapiens, Pancreatic cancer cell, read-out: IC50 (−LogM) (converted)",< 31.6 µM
same,IC50,"DLD1; Homo sapiens, DLD-1, read-out: IC50 (−LogM) (converted)",< 31.6 µM
same,IC50,"H2122; Homo sapiens, NCI-H2122, read-out: IC50 (−LogM) (converted)",1 µM
same,IC50,T29Kt1 cells [1],0.501 µM
same,IC50,Heb44,0.01 µM
same,IC50,"H2009; Homo sapiens, NCI-H2009, read-out: IC50 (−LogM) (converted)",31.6 µM
same,IC50,"HKE3; read-out: IC50 (−LogM), HKE3, Colon, first HKE3 line (converted)",0.1 µM
same,IC50,"HKE3; read-out: IC50 (−LogM), HKE3, Colon, second HKE3 line (converted)",0.398 µM
same,IC50,"AsPC-1; Homo sapiens, ASPC1, read-out: IC50 (−LogM), ASPC1, Pancrease (converted)",2 µM
same,IC50,"Capanc-1; Homo sapiens, Pancreatic cancer cell, read-out: IC50 (−LogM), capanc1, Pancrease (converted)",31.6 µM
same,IC50,"H1299 cells; Homo sapiens, NCI-H1299, read-out: IC50 (−LogM), h1299, Lung (converted)",10 µM
same,IC50,T29 cells [2],31.6 µM
same,IC50,"H460 cells [3]; NCI-H460, read-out: IC50 (−LogM), H460, Lung (converted)",0.0398 µM
same,IC50,"H460 cells [3]; NCI-H460, read-out: IC50 in H460 cells, Table 1",0.0398 µM
same,IC50,H1933; [7],25.1 µM
same,IC50,"H322 cells; Homo sapiens, NCI-H322, read-out: IC50 (−LogM) (converted)",31.6 µM
same,IC50,"H23; Homo sapiens, NCI-H23, read-out: IC50 (−LogM) (converted)",31.6 µM
same,IC50,Hey,< 31.6 µM
same,IC50,"Ovcar3; Homo sapiens, OVCAR-3",0.158 µM
same,IC50,Ovcar443,10 µM
same,IC50,Ovca429,31.6 µM
same,IC50,"SKOV3; Homo sapiens, SK-OV-3",1 µM
same,IC50,"H1395; Homo sapiens, NCI-H1395, read-out: IC50 (−LogM) (converted)",< 31.6 µM
same,IC50,Heb46,0.2 µM
same,IC50,A549CK8; [7],3.16 µM
"OCc1cn(Cc2ccc(Br)cc2)c2ccccc12 [Oncrasin K73, 1H-Indole-3-methanol, 1-{(4-bromophenyl)methyl]-(9CI)]",IC50 (−LogM),"H2087; H2087, Lung",4.5 −LogM
same,IC50 (−LogM),"CT116P53; CT116P53, Colon",>4.5 −LogM
same,IC50 (−LogM),H226B cells; first H226B line,7 −LogM
same,IC50 (−LogM),H226B cells; second H226B line,5.8 −LogM
same,IC50 in T29k cells,"T29Kt1 cells [4]; Table 1, value is the negative log10 of mol/L",6.4
same,IC50 (−LogM),"A549 cells; A549, Lung",>4.5 −LogM
same,IC50 (−LogM),"Hct116; Hct116, Colon",5.5 −LogM
same,IC50 (−LogM),"H460 cells [5]; H460, Lung",8.5 −LogM
same,IC50 (−LogM),"miapac; miapac, Pancrease",>4.5 −LogM
same,IC50 (−LogM),"DLD1; DLD1, Colon",>4.5 −LogM
same,IC50 (−LogM),"H2122; H2122, Lung",5.6 −LogM
same,IC50 (−LogM),Heb44,7.4 −LogM
same,IC50 (−LogM),"H2009; H2009, Lung",>4.5 −LogM
same,IC50 (−LogM),HKE3; first HKE3 line,6.5 −LogM
same,IC50 (−LogM),HKE3; second HKE3 line,6.1 −LogM
same,IC50 (−LogM),"AsPC-1; ASPC1, Pancrease",5.5 −LogM
same,IC50 (−LogM),"Capanc-1; capanc1, Pancrease",5.5 −LogM
same,IC50 (−LogM),"H1299 cells; h1299, Lung",>4.5 −LogM
same,IC50 (−LogM),"H1933; H1933, Lung",4.5 −LogM
same,IC50 (−LogM),"H322 cells; H322, Lung",>4.5 −LogM
same,IC50 (−LogM),Sw620,>4.5 −LogM
same,IC50 (−LogM),"H23; H23, Lung",4.5 −LogM
same,IC50 (−LogM),Hey,4.5 −LogM
same,IC50 (−LogM),Ovcar3,5.9 −LogM
same,IC50 (−LogM),Ovcar443,4.8 −LogM
same,IC50 (−LogM),Ovca429,5.5 −LogM
same,IC50 (−LogM),SKOV3,5.5 −LogM
same,IC50 (−LogM),"H1395; H1395, Lung",>4.5 −LogM
same,IC50 (−LogM),Heb46,6.1 −LogM
same,IC50 (−LogM),"A549CK8; A549CK8, Lung",5.5 −LogM
"OCc1c[nH]c2ccccc12 [indole-3-carbinol, reference compound]",toxicity to T29K cells,T29Kt1 cells [4]; same dose range as tested for the leader,did not induce any cytotoxicity
same,cytotoxicity in T29Kt1 cells,T29Kt1 cells [4]; up to 100 μM,did not have any cytotoxic effects
same,toxicity to T29 cells,T29 cells [6]; [8],did not induce any cytotoxicity
same,cytotoxicity in T29 cells,T29 cells [6]; [9],did not have any cytotoxic effects
same,cytotoxicity in H460 cells,H460 cells [5]; up to 100 μM,did not have any cytotoxic effects
same,toxicity to T29Ht1 (T29H) cells,T29Ht1 cells; [8],did not induce any cytotoxicity
same,cytotoxicity in T29Ht1 cells,T29Ht1 cells; [9],did not have any cytotoxic effects
"CC(=O)O[C@H]1C(=O)[C@@]2(C)[C@H]([C@H](OC(=O)c3ccccc3)[C@]3(O)C[C@H](OC(=O)[C@H](O)[C@@H](NC(=O)c4ccccc4)c4ccccc4)C(C)=C1C3(C)C)[C@]1(OC(C)=O)CO[C@@H]1C[C@@H]2O [taxol, paclitaxol, reference compound]","PKCiota aggregation in the nucleus, T29Kt1 cells",PKCiota,did not induce PKCiota aggregation
